# Reference: ChEMBL document CHEMBL2073971, “Organic anion-transporting polypeptides mediate transport of opioid peptides across blood-brain barrier” (J Pharmacol Exp Ther, 2000)
# T1: Solute carrier organic anion transporter family member 1A2 (Homo sapiens, UniProt P46721)
# T1 sequence (P46721 whole entry): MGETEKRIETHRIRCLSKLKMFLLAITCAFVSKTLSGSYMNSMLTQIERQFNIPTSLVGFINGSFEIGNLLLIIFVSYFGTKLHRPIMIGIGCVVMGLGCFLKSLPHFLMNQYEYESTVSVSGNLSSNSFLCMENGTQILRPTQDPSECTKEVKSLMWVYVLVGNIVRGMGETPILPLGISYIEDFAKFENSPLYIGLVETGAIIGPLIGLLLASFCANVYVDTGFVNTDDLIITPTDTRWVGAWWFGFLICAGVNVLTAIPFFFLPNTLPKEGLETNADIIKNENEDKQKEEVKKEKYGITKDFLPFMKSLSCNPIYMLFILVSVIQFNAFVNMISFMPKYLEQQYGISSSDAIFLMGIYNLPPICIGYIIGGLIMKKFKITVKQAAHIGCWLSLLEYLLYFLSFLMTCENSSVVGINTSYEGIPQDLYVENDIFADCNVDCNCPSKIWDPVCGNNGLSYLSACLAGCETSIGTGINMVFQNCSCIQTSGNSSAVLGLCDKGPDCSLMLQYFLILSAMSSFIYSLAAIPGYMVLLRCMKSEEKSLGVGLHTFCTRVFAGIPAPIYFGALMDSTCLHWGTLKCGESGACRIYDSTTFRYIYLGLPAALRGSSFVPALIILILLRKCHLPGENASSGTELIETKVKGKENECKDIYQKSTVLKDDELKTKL
# T2: Solute carrier organic anion transporter family member 1A2 (OATP1A2) (Homo sapiens, UniProt P46721)
# T2 sequence (P46721 whole entry): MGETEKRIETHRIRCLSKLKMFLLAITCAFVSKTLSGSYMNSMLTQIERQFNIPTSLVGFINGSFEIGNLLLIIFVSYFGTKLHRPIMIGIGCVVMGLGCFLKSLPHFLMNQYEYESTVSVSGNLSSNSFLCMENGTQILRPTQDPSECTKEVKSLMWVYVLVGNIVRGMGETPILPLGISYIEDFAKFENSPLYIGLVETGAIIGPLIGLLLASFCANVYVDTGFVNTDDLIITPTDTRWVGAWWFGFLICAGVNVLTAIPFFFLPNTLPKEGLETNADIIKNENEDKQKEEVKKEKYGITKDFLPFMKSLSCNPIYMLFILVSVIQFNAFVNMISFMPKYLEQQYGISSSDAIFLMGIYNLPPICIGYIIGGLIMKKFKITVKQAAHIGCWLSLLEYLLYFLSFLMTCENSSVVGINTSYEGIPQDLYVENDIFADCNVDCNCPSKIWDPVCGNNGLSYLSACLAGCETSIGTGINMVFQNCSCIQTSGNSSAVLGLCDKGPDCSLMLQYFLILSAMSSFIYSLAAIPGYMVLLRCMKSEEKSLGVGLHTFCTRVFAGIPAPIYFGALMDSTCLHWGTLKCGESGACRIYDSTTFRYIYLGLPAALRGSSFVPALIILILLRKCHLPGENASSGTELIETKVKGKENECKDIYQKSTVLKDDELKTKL
# T3: Solute carrier organic anion transporter family member 1A4 (Rattus norvegicus, UniProt O35913)
# T3 sequence (O35913 whole entry): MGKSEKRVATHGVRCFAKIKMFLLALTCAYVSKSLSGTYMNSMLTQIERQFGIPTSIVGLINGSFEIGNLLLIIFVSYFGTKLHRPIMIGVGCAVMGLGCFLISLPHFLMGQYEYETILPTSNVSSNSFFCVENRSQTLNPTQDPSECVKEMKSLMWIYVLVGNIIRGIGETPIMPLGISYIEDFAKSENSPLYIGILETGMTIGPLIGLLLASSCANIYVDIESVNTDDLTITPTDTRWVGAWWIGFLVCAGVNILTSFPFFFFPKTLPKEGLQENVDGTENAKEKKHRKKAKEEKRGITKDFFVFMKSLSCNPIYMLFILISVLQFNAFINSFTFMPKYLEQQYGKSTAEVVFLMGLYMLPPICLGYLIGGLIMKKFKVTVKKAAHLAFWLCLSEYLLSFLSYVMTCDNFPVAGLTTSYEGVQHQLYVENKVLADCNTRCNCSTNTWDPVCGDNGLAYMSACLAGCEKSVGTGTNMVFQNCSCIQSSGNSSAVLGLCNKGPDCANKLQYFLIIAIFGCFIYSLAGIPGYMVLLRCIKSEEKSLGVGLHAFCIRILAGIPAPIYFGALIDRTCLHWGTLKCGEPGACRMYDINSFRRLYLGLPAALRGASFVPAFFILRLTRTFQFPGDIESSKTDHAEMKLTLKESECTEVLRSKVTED
# Legend:
# [1] = molecular target: T1, Solute carrier organic anion transporter family member 1A2; test: TP_TRANSPORTER: inhibition of Deltorphin II uptake (Deltorphin II: 50 uM, Naloxone: 1500 uM) in Xenopus laevis oocytes; assay type: functional, cell-based; details: oocyte
# [2] = molecular target: T2, Solute carrier organic anion transporter family member 1A2 (OATP1A2); test: (§1) TP_TRANSPORTER: uptake in Xenopus laevis oocytes; assay type: functional, cell-based, Oocyte; details: Xenopus laevis oocytes expressing the transporter
# [3] = molecular target: T1, Solute carrier organic anion transporter family member 1A2; test: TP_TRANSPORTER: inhibition of Deltorphin II uptake (Deltorphin II: 50 uM, DPDPE: 500 uM) in Xenopus laevis oocytes; assay type: functional, cell-based; details: oocyte
# [4] = molecular target: T3, Solute carrier organic anion transporter family member 1A4; test: as §1; assay type: functional, cell-based; details: oocyte
# [5] = molecular target: T1, Solute carrier organic anion transporter family member 1A2; test: TP_TRANSPORTER: inhibition of Deltorphin II uptake (Deltorphin II: 50 uM, DAMGO: 200 uM) in Xenopus laevis oocytes; assay type: functional, cell-based; details: oocyte
# [6] = molecular target: T1, Solute carrier organic anion transporter family member 1A2; test: TP_TRANSPORTER: inhibition of Deltorphin II uptake (Deltorphin II: 50 uM, E1S: 150 uM) in Xenopus laevis oocytes; assay type: functional, cell-based; details: oocyte
# [7] = molecular target: T1, Solute carrier organic anion transporter family member 1A2; test: TP_TRANSPORTER: inhibition of Deltorphin II uptake (Deltorphin II: 50 uM, Naltrindole: 1500 uM) in Xenopus laevis oocytes; assay type: functional, cell-based; details: oocyte
# [8] = substrate: CC1(C)SSC(C)(C)[C@@H](NC(=O)[C@@H](N)Cc2ccc(O)cc2)C(=O)NCC(=O)N[C@@H](Cc2ccccc2)C(=O)N[C@H]1C(=O)O; test: as §1; assay type: functional, cell-based, Oocyte
# [9] = substrate: CC(C)[C@H](NC(=O)[C@H](CCC(=O)O)NC(=O)[C@H](Cc1ccccc1)NC(=O)[C@@H](C)NC(=O)[C@@H](N)Cc1ccc(O)cc1)C(=O)N[C@H](C(=O)NCC(N)=O)C(C)C; test: as §1; assay type: functional, cell-based, Oocyte
molecule,measurement,setting,value
C=CCN1CC[C@]23c4c5ccc(O)c4O[C@H]2C(=O)CC[C@@]3(O)[C@H]1C5 [NALOXONE],Activity,[1],inhibitor [(at a rough estimate) 20 % of control]
CC1(C)SSC(C)(C)[C@@H](NC(=O)[C@@H](N)Cc2ccc(O)cc2)C(=O)NCC(=O)N[C@@H](Cc2ccccc2)C(=O)N[C@H]1C(=O)O,Km,[2],202 µM
same,Activity,[3],inhibitor [(at a rough estimate) 50 % of control]
CC(C)[C@H](NC(=O)[C@H](CCC(=O)O)NC(=O)[C@H](Cc1ccccc1)NC(=O)[C@@H](C)NC(=O)[C@@H](N)Cc1ccc(O)cc1)C(=O)N[C@H](C(=O)NCC(N)=O)C(C)C [DELTORPHIN II],Activity,[4],is not a substrate [-]
same,Km,[2],330 µM
C[C@@H](NC(=O)[C@@H](N)Cc1ccc(O)cc1)C(=O)NCC(=O)N(C)[C@@H](Cc1ccccc1)C(=O)NCCO [DAMGO],Activity,[5],inhibitor [(at a rough estimate) 50 % of control]
C[C@]12CC[C@@H]3c4ccc(OS(=O)(=O)O)cc4CC[C@H]3[C@@H]1CCC2=O [ESTRONE SULFURIC ACID],Activity,[6],inhibitor [(at a rough estimate) 10 % of control]
Oc1ccc2c3c1O[C@H]1c4[nH]c5ccccc5c4C[C@@]4(O)[C@@H](C2)N(CC2CC2)CC[C@]314 [NALTRINDOLE],Activity,[7],inhibitor [(at a rough estimate) 10 % of control]
Solute carrier organic anion transporter family member 1A4 (Rattus norvegicus) (protein) MGKSEKRVATHGVRCFAKIKMFLLALTCAYVSKSLSGTYMNSMLTQIERQFGIPTSIVGLINGSFEIGNLLLIIFVSYFGTKLHRPIMIGVGCAVMGLGCFLISLPHFLMGQYEYETILPTSNVSSNSFFCVENRSQTLNPTQDPSECVKEMKSLMWIYVLVGNIIRGIGETPIMPLGISYIEDFAKSENSPLYIGILETGMTIGPLIGLLLASSCANIYVDIESVNTDDLTITPTDTRWVGAWWIGFLVCAGVNILTSFPFFFFPKTLPKEGLQENVDGTENAKEKKHRKKAKEEKRGITKDFFVFMKSLSCNPIYMLFILISVLQFNAFINSFTFMPKYLEQQYGKSTAEVVFLMGLYMLPPICLGYLIGGLIMKKFKVTVKKAAHLAFWLCLSEYLLSFLSYVMTCDNFPVAGLTTSYEGVQHQLYVENKVLADCNTRCNCSTNTWDPVCGDNGLAYMSACLAGCEKSVGTGTNMVFQNCSCIQSSGNSSAVLGLCNKGPDCANKLQYFLIIAIFGCFIYSLAGIPGYMVLLRCIKSEEKSLGVGLHAFCIRILAGIPAPIYFGALIDRTCLHWGTLKCGEPGACRMYDINSFRRLYLGLPAALRGASFVPAFFILRLTRTFQFPGDIESSKTDHAEMKLTLKESECTEVLRSKVTED,Km,[8],19 µM
Solute carrier organic anion transporter family member 1A1 (Rattus norvegicus) (protein) MEETEKKIATQEGRLFSKMKVFLLSLTCACLTKSLSGVYMNSMLTQIERQFDISTSVAGLINGSFEIGNLFFIVFVSYFGTKLHRPVVIGIGCVIMGLGCLLMSLPHFFMGRYEYETTISPTGNLSSNSFLCMENRTQTLKPTQDPAECVKEMKSLMWICVMVGNIIRGIGETPIVPLGISYIEDFAKSENSPLYIGILEMGKVAGPIFGLLLGSYCAQIYVDIGSVNTDDLTITPSDTRWVGAWWIGFLVCAGVNILTSIPFFFLPKALPKKGQQENVAVTKDGKVEKYGGQAREENLGITKDFLTFMKRLFCNPIYMLFILTSVLQVNGFINKFTFLPKYLEQQYGKSTAEAIFLIGVYSLPPICLGYLIGGFIMKKFKITVKKAAYLAFCLSVFEYLLFLCHFMLTCDNAAVAGLTTSYKGVQHQLHVESKVLADCNTRCSCSTNTWDPVCGDNGVAYMSACLAGCKKFVGTGTNMVFQDCSCIQSLGNSSAVLGLCKKGPECANRLQYFLILTIIISFIYSLTAIPGYMVFLRCVKSEEKSLGVGLHTFCIRVFAGIPAPVYFGALIDRTCLHWGTLKCGQRGACRMYDINSFRHIYLGLPIALRGSSYLPAFFILILMRKFQFPGDIDSSATDHTEMMLGEKESEHTDVHGSPQVENDGELKTKL,Km,[9],137 µM
same,Km,[8],48 µM
